The values that follow come from US20220339596A1, “METHOD FOR PRODUCING RADICALS, METHOD FOR STERILIZING SPORES, AND CANCER TREATMENT DRUG” (priority 2019, published 2022).

The test system of one series is Yeast cells. It counts as cell-based. As for the experimental part: Yeast was inoculated into a modified YPE liquid medium (2% of polypeptone, 1% of yeast extract, 2% of ethanol, and 0.2% of glucose) and was incubated at 30° C. for 1 day. A bacterial liquid was collected from the liquid medium and washed by being suspended in purified water, and yeast cells collected through centrifugal separation were taken as a specimen. The cells were suspended in a 100 mmol/L potassium phosphate buffer solution (pH: 7.0) at a concentration of about 5×10^8 cells/mL. Also, the suspension of cells was diluted with a 100 mmol/L potassium phosphate buffer solution as appropriate so as to have a target concentration of cells.
The reagent containing chlorine dioxide radicals prepared as described above in (3) was diluted with a 10 mmol/L potassium phosphate buffer solution (pH: 7.0) to prepare a sample containing chlorine dioxide radicals at a concentration of 20 μmol/L. On the other hand, the suspension of cells prepared in (1) was diluted with a 10 mmol/L potassium phosphate buffer solution (pH: 7.0) such that the concentration of cells was about 5×10^8 cells/mL. Next, 0.5 mL of the sample containing chlorine dioxide radicals was mixed with 0.5 mL of the suspension of cell spores, and the liquid mixture was left to stand at room temperature for 30 minutes. Thereafter, the liquid mixture was scattered over brain heart agar and incubated at 30° C. for 1 day, and then the number of colonies was counted.
Then, similarly to Experiment 1 described above, 0.5 mL of a yeast solution having a yeast cell concentration of about 5×10^8 cells/mL was added to 0.5 mL of the reagent, and 1 mL of the resultant solution was placed in a disposable cell UV (product name: Two-face transparent semimicro #1941, Nikko Hansen & CO., LTD.), and was irradiated with light using an LED via a side surface of the cell. […] The radiant energy under the above condition was calculated as 37.8 J/cm^2. The solution after the treatment was scattered over brain heart agar after being diluted as appropriate, and incubated at 30° C. for 1 day, and then the number of colonies was counted.

Series [1] has as its system HT-29 cells (human colon adenocarcinoma cells). The conditions noted are these: for cancer cells killed: 455 nm light 72 J/cm^2. As for the experimental part:
HT-29 cells (human colon adenocarcinoma cells) were inoculated into each well of a cell incubation microplate (subjected to surface treatment) having 96 wells and grown in a CO2 incubator at 37° C. in the presence of 5% of CO2 until the number of cells reached about 2000 cells/well. 90 μL of McCoy's 5a Medium (the name of a product manufactured by FUJIFILM Wako Pure Chemical Corporation) was used as the cell culture medium. Next, after each treatment described below in (1) to (6) was performed, the medium was replaced with 90 μL of McCoy's 5a Medium and the cells were incubated in the CO2 incubator for 2 days under the above conditions. 10 μL of a WST-8 solution (solution in a product “WST-8 Cell Proliferation Kit”, Funakoshi Co., Ltd.) was added to measure the number of living cells, then incubation was performed in the CO2 incubator (37° C.) for 5 hours, and thereafter an absorbance of 450 nm was measured using a microplate reader. The percentage of the absorbance of each sample relative to an absorbance when treatment (1), which was a control experiment, was performed was calculated. The absorbance when treatment (1) was performed was almost the same as the absorbance of untreated cells.
Conditions of treatments (1) to (6) and percentages of absorbances of samples obtained through the treatments were as follows. The amount by which the percentage of an absorbance decreased from 100% is presumed to be substantially equal to a death rate (%) of cancer cells.
(1) The medium was replaced with 100 μL of PBS (pH: 7.0)** and left to stand at room temperature for 30 minutes. ------ Absorbance percentage: 100% (2) The medium was replaced with 100 μL of PBS (pH: 7.0) and irradiated with light (radiant energy: 72 J/cm^2) at room temperature for 30 minutes using an LED (product name: M455L3, Thorlabs Japan Inc., wavelength: 455 nm, irradiance: 40 mW/cm^2). ------ Absorbance percentage: 96% (3) The medium was replaced with 100 μL of PBS (pH: 7.0) containing 1.4 mM of NaClO2 and left to stand at room temperature for 30 minutes. ------ Absorbance percentage: 97% (4) The medium was replaced with 100 μL of PBS (pH: 7.0) containing 1.4 mM of NaClO2 and irradiated with light (radiant energy: 72 J/cm^2) at room temperature for 30 minutes using an LED (product name: M455L3, Thorlabs Japan Inc., wavelength: 455 nm, irradiance: 40 mW/cm^2). ------ Absorbance percentage: 11% (5) The medium was replaced with 100 μL of PBS (pH: 7.0) containing 2.8 mM of NaClO2 and left to stand at room temperature for 30 minutes. ------ Absorbance percentage: 97% (6) The medium was replaced with 100 μL of PBS (pH: 7.0) containing 2.8 mM of NaClO2 and irradiated with light (radiant energy: 72 J/cm^2) at room temperature for 30 minutes using an LED (product name: M455L3, Thorlabs Japan Inc., wavelength: 455 nm, irradiance: 40 mW/cm^2). ------ Absorbance percentage: 6% **: A phosphate-buffered saline whose pH was adjusted to 7.0 and osmotic pressure was adjusted to be the same as that of a standard phosphate-buffered saline having a pH of 7.5 was used. Specifically, PBS (pH: 7.0) had the following composition: NaCl: 140 mM, KCl: 0.43 mM, KH2PO4: 3.72 mM, Na2HPO4: 5.81 mM.

The subject of series [2] is Spores of Bacillus subtilis. Type of series: cell-based.
Procedure: Bacillus subtilis was scattered over a nutrient agar medium and incubated at 37° C. for 1 week. Colonies were scraped off from the agar medium and washed by being suspended in a physiological saline solution, and Bacillus subtilis collected through centrifugal separation was taken to be cell spores. The cell spores were suspended in a physiological saline solution at a concentration of about 6×10^6 spores/mL. The suspension of cell spores was prepared so as to have the target concentration of cell spores by being diluted with purified water as appropriate.
On the other hand, a reagent having a pH of 7.0 was prepared and irradiated with light using the LED in the same manner as that described above in (1) to generate radicals. The reagent (chlorine dioxide radical concentration: 600 μmol/L) in which radicals were generated was diluted with a 10 mmol/L potassium phosphate buffer solution (pH: 7.0) as appropriate to prepare samples containing radicals at predetermined concentrations. […] Thereafter, the liquid mixture was scattered over brain heart agar, incubation was performed at 37° C. for 12 hours, and then the number of colonies was counted.
As control 1, a reagent having a pH of 7.0 that was not irradiated with light was added to the suspension of cell spores and was left to stand, and incubation was performed as described above, and then the number of colonies was counted. […]
A further series concerns Candida albicans. Type of series: cell-based.
For series [3], the system named is respiratory chain. The experiment in a line: Electron transfer activity of the respiratory chain in yeast cells. Type of series: cell-based. The following applies: in proportion to the reduction in survival rate. The text has this: (§1) Accordingly, it is supposed that the respiratory chain in mitochondria was one target portion of the yeast cells and the Candida cells treated with chlorine dioxide radicals. It is thought that when the respiratory chain is damaged, ROS (Reactive Oxygen Species) are generated, which leads to apoptosis and the death of cells.

A short description of series [4]: ClO2 radical concentration over time (absorption spectrum). Type of series: physicochemical. The following applies: photoirradiation not performed.
Procedure: 1 mL of each of the reagents was placed in a disposable cell UV (product name: Two-face transparent semimicro #1941,Nikko Hansen & CO., LTD.), and was irradiated with light via a side surface of the cell using an LED in the same manner as in Example 1 (1) described above. The photoirradiation was performed similarly to Example 1 described above, unless otherwise specified. […] Then, an absorption spectrum was measured over time from the start of irradiation using the double optical path spectrophotometer (product name: UV-2400PC, SHIMADZU CORPORATION), and the molar concentration of chlorite ions (ClO2^−) was calculated from an absorbance at the minimum absorption of the wavelength of 260 nm, and the molar concentration of chlorine dioxide radicals (ClO2^⋅) was calculated from an absorbance at the maximum absorption of the wavelength of 359 nm.
Series [5] has as its system respiratory chain. The experiment in a line: Electron transfer activity of the respiratory chain in Candida cells. Type of series: cell-based, Candida albicans. The following applies: in proportion to the reduction in survival rate.
Text: as §1

[6] abbreviates: control: sodium chlorite aqueous solution not irradiated with light, 25° C. 1 hour.
Setting [7] is: Experiment 1: 20 μmol/L chlorine dioxide radical sample mixed 1:1 with cell suspension, room temperature 30 minutes.

Where two headings read alike, the source gives them in different places. A value given as a limit tells only on which side of the number the result lay.

Turning to sodium chlorite, the survival rate result in the series with Yeast cells (setting [6]) and in the series on Candida albicans (setting [6]) was “did not decrease” each time. The cancer cells killed result in series [1] (1.4 mM) is given as “about 89%”; in series [1] (2.8 mM), ~94%. Also, the “Absorbance percentage (450 nm, relative to treatment (1))” value in series [1] (treatment (3): 1.4 mM, PBS pH 7.0, room temperature 30 minutes, no light) was determined as 97%; in series [1] (treatment (4): 1.4 mM, PBS pH 7.0, 455 nm LED 40 mW/cm^2 30 minutes (72 J/cm^2)) it was 11%; in series [1] (treatment (5): 2.8 mM, PBS pH 7.0, room temperature 30 minutes, no light), 97%; in series [1] (treatment (6): 2.8 mM, PBS pH 7.0, 455 nm LED 40 mW/cm^2 30 minutes (72 J/cm^2)), 6%. The “reduction in the number of spores” value in series [2] (control 1: reagent pH 7.0 not irradiated with light) is given as “not confirmed”. In the series with Candida albicans (as Experiment 2 (sodium chlorite with LED irradiation)), the “survival rate relative to untreated” value is on record as “about one tenth”.
In the case of `[O][Cl+][O-]` [chlorine dioxide radicals], the “concentration of cells after treatment” value in the series on Yeast cells (setting [7]) is on record as “about 2.5×10^7 cells/mL”. The “survival rate relative to untreated” value in the series on Yeast cells (setting [7]) and in the series on Candida albicans (as Experiment 1 (pre-generated chlorine dioxide radicals)) was “about one tenth” throughout. The “number of spores decreased to” value in series [2] (chlorine dioxide radical concentration 300 μmol/L, room temperature 30 minutes) was ≤ 10^−6. Also, the “electron transfer activity of the respiratory chain” value in the series with respiratory chain [3] and with respiratory chain [5] was “reduction” throughout. In addition, the “time in which ClO2 radical concentration decreased by about half” value in series [4] is ~2 h.
